Test results as given in patent US20240390286A1, “PREPARATION OF PHARMACEUTICAL COMPOSITIONS USING SUPERCYCLE VAPOR PHASE DEPOSITION OF METAL OXIDES” (Applied Materials, Inc., priority 2023, published 2024).

Tests used:
Type in all cases: physicochemical
[1] = Indomethacin dissolution, pH 7.2 sodium phosphate buffer, USP2 apparatus (paddle); settings: 37° C., 100 rpm
Procedure: In some embodiments, the dissolution or drug release of the coated particles can be assessed by an in vitro release over time (dissolution) analysis. In some embodiments, the dissolution or drug release of the coated particles can be assessed by HPLC analysis. In some embodiments, the dissolution is assessed in methanol. In some embodiments, the dissolution is assessed in a sodium phosphate buffer solution (PBS) (e.g., pH 7.2, with or without surfactant) at 37° C., with a stirring of 100 revolutions per minute (RPM), for more than 1 minute, more than 2 minutes, more than 5 minutes, more than 10 minutes, more than 20 minutes, more than 30 minutes, more than 40 minutes, more than 50 minutes, more than 60 minutes, more than 120 minutes, more than 3 hours, more than 4 hours, more than 5 hours, more than 6 hours, more than 7 hours, more than 8 hours, more than 12 hours, more than 16 hours, more than 24 hours. In some embodiments, the coated particles have a reduced dissolution rate compared to uncoated drug particles. […]

[2] = Indomethacin dissolution, pH 7.2 PIPES buffer, USP4 apparatus (flow through); settings: 37° C., 16 ml/min
Procedure: FIG. 8 depicts the results of a study of indomethacin dissolution in pH 7.2 PIPES buffer solution in a USP4 dissolution apparatus (flow through) at 37° C. at a 16 ml/min flow rate. […] Again, the indomethacin release rates for AZO coated particles were in between that of ZnOx coated particles and that of AlOx coated particles. The release rate of AZO coated particles decreases as the Al/Zn ratio increases.

[3] = Particle size distribution by laser diffraction before and after coating
Description: As shown in the table below, there is no significant change in particle size distribution after the coating process.

indomethacin release profile [1]: immediate indomethacin release profile | indomethacin release profile [2]: immediate indomethacin release | D10 ([3]; laser diffraction): 4.4 ± 0.4 μm | D50 ([3]; laser diffraction): 13.3 ± 0.1 μm | D90 ([3]; laser diffraction): 24.5 ± 0.5 μm | Span ([3]; laser diffraction size distribution): 1.5
SMILES: COc1ccc2c(c1)c(CC(=O)O)c(C)n2C(=O)c1ccc(Cl)cc1 [UC-m-IMC, indomethacin]
